“Also recorded” adds a separate entry of the source.
Test system: hNaV1.5
Test: Whole-cell patch-clamp, block of NaV1.5 current
Format: cell-based, human
Conditions: CHO cells
Excerpt: We, therefore, aimed at testing the pharmacological activity of sCm39 on a battery of various potassium and sodium ion channels. Among the tested channels were six members of human voltage-gated K^+ (hKV) channels from Shaker family, hKV1.1-hKV1.6 (Figure 3A–F) and three members of Ca^2+-activated potassium channel; hKCa2.2 (SK2, Figure 3I), the small-conductance Ca^2+-activated channel; hKCa3.1 (IKCa1, SK4. Figure 3J), the intermediate-conductance Ca^2+-activated channel expressed in T lymphocytes; and mKCa1.1 (BK, Slo1, MaxiK, Figure 3H), the large-conductance voltage- and Ca^2+-activated channel of mice. In addition, we also screened the effect of Cm39 on hKV11.1 (hERG1, Figure 3G), a voltage-gated cardiac K^+ channel, and two human voltage-gated sodium (hNaV) channels, hNaV1.4 (Figure 3K) and hNaV1.5 (Figure 3L), expressed in skeletal and cardiac muscles, respectively. These ion channels were heterologously expressed in the CHO or HEK cell lines except for KV1.3. Human peripheral T lymphocytes. They were stimulated with Phytohemagglutinin A (PHA) to increase the KV1.3 channel expression, and Ca^2+-free intracellular solution was used to avoid KCa3.1 channel activation. […]
Those plasmids which lack a fluorescent tag were co-transfected with a plasmid encoding GFP. […] Generally, currents were recorded 24 to 48 h post transfection. […]

In the case of `CC[C@H](C)[C@@H]1NC(=O)[C@H](C)NC(=O)[C@H](C)NC(=O)[C@H](CCCCN)NC(=O)[C@@H]2CSSC[C@@H](C(=O)N[C@@H](Cc3ccc(O)cc3)C(=O)N[C@@H](Cc3ccc(O)cc3)C(=O)O)NC(=O)[C@H](CCCCN)NC(=O)[C@@H]3CSSC[C@H](NC(=O)[C@H](CCC(=O)O)NC(=O)[C@H](CO)NC(=O)[C@H](CO)NC(=O)[C@H](CO)NC(=O)[C@H](CCCCN)NC(=O)[C@@H](NC(=O)[C@H](CCCCN)NC(=O)[C@H](Cc4c[nH]cn4)NC(=O)[C@H](CC(N)=O)NC(=O)[C@@H](NC(=O)[C@H](Cc4ccccc4)NC(=O)[C@@H](N)[C@@H](C)O)[C@@H](C)CC)CSSC[C@H](NC(=O)[C@H](CCCCN)NC(=O)CNC(=O)[C@H](CO)NC(=O)[C@H](C)NC(=O)[C@H](CCCNC(=N)N)NC(=O)CNC1=O)C(=O)N[C@@H]([C@@H](C)CC)C(=O)N[C@@H](CC(N)=O)C(=O)N[C@@H](CO)C(=O)N[C@@H]([C@@H](C)O)C(=O)N3)C(=O)N[C@@H](CC(C)C)C(=O)N1CCC[C@H]1C(=O)N[C@@H](C)C(=O)N2` [Cm39], the “inhibition (in words)” value (1 μM) is reported as “does not inhibit; also recorded: did not show any effect” and the decrease in current (1 µM, 3−5 min, n = 3−5) is reported as under 3%.

From paper PMC9866218, “Characterization and Chemical Synthesis of Cm39 (α-KTx 4.8): A Scorpion Toxin That Inhibits Voltage-Gated K^+ Channel KV1.2 and Small- and Intermediate-Conductance Ca^2+-Activated K^+ Channels KCa2.2 and KCa3.1” (Toxins, 2023)
